Laboratory results from patent publication US6358885B1, “Substituted phenylheterocyclic herbicides” (Mississippi State University, priority 1992, dated 2002).

How the values were obtained:
[1] = tested on: blackgrass; assay: Test C preemergence/postemergence greenhouse plant response rating 0 to 100; type: in vivo, Alopecurus myosuroides; conditions: POSTEMERGENCE; for Plant response rating, Blackgrass: 0 to 100 scale
Summary of the method: (§1)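 Compounds in non-phytotoxic solvent applied preemergence to sandy loam one day after planting, postemergence at the 1–4 leaf stage, or to ~2.5 cm floodwater over silt loam.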

[2] = tested on: lambsquarters; assay: as above; type: in vivo, Chenopodium album; conditions: POSTEMERGENCE; for Plant response rating Lambsquarters: 0 to 100 scale
Summary of the method: as §1

[3] = tested on: sugar beet; assay: as above; type: in vivo, Beta vulgaris; conditions: POSTEMERGENCE; for Plant response rating, Sugar beet: 0 to 100 scale
Summary of the method: as §1

[4] = tested on: duck salad; assay: Test C flood test plant response rating 0 to 100; type: in vivo, Heteranthera limosa; conditions: for Plant response rating Duck salad: flood test species listed under POSTEMERGENCE, 0 to 100 scale
Summary of the method: as §1

[5] = tested on: barley; assay: Test B preemergence/postemergence greenhouse plant response rating 0 to 10; type: in vivo, Hordeum vulgare; conditions: 0 to 10 scale
Summary of the method: (§2)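 Test chemicals were sprayed onto freshly planted seed and, concurrently, onto young plants between the one and four leaf stage. After a twelve- to sixteen-day greenhouse period, each species was visually compared with untreated controls.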

[6] = tested on: barnyardgrass; assay: Test C flood test plant response rating 0 to 100; type: in vivo, Echinochloa crus-galli; conditions: for Plant response rating, Barnyardgrass: flood test species listed under POSTEMERGENCE, 0 to 100 scale
Summary of the method: as §1

[7] = tested on: cotton; assay: Test B preemergence/postemergence greenhouse plant response rating 0 to 10; type: in vivo, Gossypium hirsutum; conditions: 0 to 10 scale
Summary of the method: as §2

[8] = tested on: rape; assay: Test C preemergence/postemergence greenhouse plant response rating 0 to 100; type: in vivo, Brassica napus; conditions: POSTEMERGENCE; for Plant response rating, Rape: 0 to 100 scale
Summary of the method: as §1

[9] = tested on: wheat; assay: as above; type: in vivo, Triticum aestivum; conditions: POSTEMERGENCE; for Plant response rating, Wheat: 0 to 100 scale
Summary of the method: as §1

[10] = tested on: ryegrass; assay: as above; type: in vivo, Lolium multiflorum; conditions: POSTEMERGENCE; for Plant response rating Ryegrass: 0 to 100 scale
Summary of the method: as §1

[11] = tested on: corn; assay: as above; type: in vivo, Zea mays; conditions: POSTEMERGENCE; for Plant response rating, Corn: 0 to 100 scale
Summary of the method: as §1

[12] = tested on: bedstraw; assay: Test B preemergence/postemergence greenhouse plant response rating 0 to 10; type: in vivo, Galium aparine; conditions: 0 to 10 scale
Summary of the method: as §2

[13] = tested on: cheatgrass; assay: as above; type: in vivo, Bromus secalinus; conditions: 0 to 10 scale
Summary of the method: as §2

[14] = tested on: cocklebur; assay: as above; type: in vivo, Xanthium pensylvanicum; conditions: 0 to 10 scale
Summary of the method: as §2

[15] = tested on: giant foxtail; assay: Test C preemergence/postemergence greenhouse plant response rating 0 to 100; type: in vivo, Setaria faberii; conditions: POSTEMERGENCE; for Plant response rating, Giant foxtail: 0 to 100 scale
Summary of the method: as §1

[16] = tested on: blackgrass; assay: Test B preemergence/postemergence greenhouse plant response rating 0 to 10; type: in vivo, Alopecurus myosuroides; conditions: 0 to 10 scale
Summary of the method: as §2

[17] = tested on: rice; assay: as above; type: in vivo, Oryza sativa; conditions: 0 to 10 scale
Summary of the method: as §2

[18] = tested on: wild buckwheat; assay: as above; type: in vivo, Polygonum convolvulus; conditions: 0 to 10 scale
Summary of the method: as §2

[19] = POSTEMERGENCE section, flood test, Rate 4 g/ha
[20] = Rate 16 g/ha, under POSTEMERGENCE head (flood test species)

With `C#CC(C)N1C(=O)COc2cc(F)c(-c3nn4c(c3Cl)CCCC4)cc21` (centres unmarked) [Compound 50] the “Plant response rating, Blackgrass” value ([1]; 62 g/ha) was 60, the “Plant response rating, Blackgrass” value ([1]; 250 g/ha) was 60 and the “Plant response rating (0 to 100), Blackgrass” value ([1]; Rate 1 g/ha) was 20. The “Plant response rating (0 to 100), Blackgrass” value ([1]; Rate 4 g/ha) was 30, the “Plant response rating (0 to 100), Blackgrass” value ([1]; Rate 16 g/ha) was 50 and the “Plant response rating Lambsquarters” value ([2]; 62 g/ha) was 100. The “Plant response rating Lambsquarters” value ([2]; 250 g/ha) was 100, the “Plant response rating (0 to 100), Lambsquarters” value ([2]; Rate 4 g/ha) was 100 and the “Plant response rating (0 to 100), Lambsquarters” value ([2]; Rate 16 g/ha) was 100. The “Plant response rating, Sugar beet” value ([3]; 62 g/ha) was 100, the “Plant response rating, Sugar beet” value ([3]; 250 g/ha) was 100 and the “Plant response rating (0 to 100), Sugar beet” value ([3]; Rate 1 g/ha) was 20. The “Plant response rating (0 to 100), Sugar beet” value ([3]; Rate 4 g/ha) was 100, the “Plant response rating (0 to 100), Sugar beet” value ([3]; Rate 16 g/ha) was 100 and the “Plant response rating (0 to 100), Duck salad” value [4, 19] was 0. The “Plant response rating (0 to 100), Duck salad” value [4, 20] was 0, the “Plant response rating Duck salad” value ([4]; 62 g/ha) was 0 and the “Plant response rating Duck salad” value ([4]; 250 g/ha) was 90. The “Plant response rating, Barley” value ([5]; POSTEMERGENCE, Rate 10 g/ha) was 3, the “Plant response rating, Barley” value ([5]; POSTEMERGENCE, Rate 50 g/ha) was 4 and the “Plant response rating, Barley” value ([5]; PREEMERGENCE, Rate 10 g/ha) was 0. The “Plant response rating, Barley” value ([5]; PREEMERGENCE, Rate 50 g/ha) was 0, the “Plant response rating (0 to 100), Barnyardgrass” value [6, 19] was 60 and the “Plant response rating (0 to 100), Barnyardgrass” value [6, 20] was 70. For the same compound, the “Plant response rating, Barnyardgrass” value ([6]; 62 g/ha) was 95, the “Plant response rating, Barnyardgrass” value ([6]; 250 g/ha) was 100 and the “Plant response rating, Cotton” value ([7]; POSTEMERGENCE, Rate 10 g/ha) was 9. The “Plant response rating, Cotton” value ([7]; POSTEMERGENCE, Rate 50 g/ha) was 10, the “Plant response rating, Cotton” value ([7]; PREEMERGENCE, Rate 10 g/ha) was 0 and the “Plant response rating, Cotton” value ([7]; PREEMERGENCE, Rate 50 g/ha) was 0. The “Plant response rating, Rape” value ([8]; 62 g/ha) was 100, the “Plant response rating, Rape” value ([8]; 250 g/ha) was 100 and the “Plant response rating (0 to 100), Rape” value ([8]; Rate 1 g/ha) was 0. For the same compound, the “Plant response rating (0 to 100), Rape” value ([8]; Rate 4 g/ha) was 0, the “Plant response rating (0 to 100), Rape” value ([8]; Rate 16 g/ha) was 50 and the “Plant response rating, Wheat” value ([9]; 62 g/ha) was 50. The “Plant response rating, Wheat” value ([9]; 250 g/ha) was 60, the “Plant response rating (0 to 100), Wheat” value ([9]; Rate 1 g/ha) was 0 and the “Plant response rating (0 to 100), Wheat” value ([9]; Rate 4 g/ha) was 20. For the same compound, the “Plant response rating (0 to 100), Wheat” value ([9]; Rate 16 g/ha) was 30, the “Plant response rating Ryegrass” value ([10]; 62 g/ha) was 40 and the “Plant response rating Ryegrass” value ([10]; 250 g/ha) was 50. For the same compound, the “Plant response rating (0 to 100), Ryegrass” value ([10]; Rate 1 g/ha) was 0, the “Plant response rating (0 to 100), Ryegrass” value ([10]; Rate 4 g/ha) was 20 and the “Plant response rating (0 to 100), Ryegrass” value ([10]; Rate 16 g/ha) was 30. For the same compound, the “Plant response rating, Corn” value ([11]; 62 g/ha) was 50, the “Plant response rating, Corn” value ([11]; 250 g/ha) was 60 and the “Plant response rating (0 to 100), Corn” value ([11]; Rate 1 g/ha) was 20. For the same compound, the “Plant response rating (0 to 100), Corn” value ([11]; Rate 4 g/ha) was 30, the “Plant response rating (0 to 100), Corn” value ([11]; Rate 16 g/ha) was 40 and the “Plant response rating, Bedstraw” value ([12]; POSTEMERGENCE, Rate 10 g/ha) was 10. For the same compound, the “Plant response rating, Bedstraw” value ([12]; POSTEMERGENCE, Rate 50 g/ha) was 10, the “Plant response rating, Bedstraw” value ([12]; PREEMERGENCE, Rate 10 g/ha) was 3 and the “Plant response rating, Bedstraw” value ([12]; PREEMERGENCE, Rate 50 g/ha) was 10. For the same compound, the “Plant response rating, Cheatgrass” value ([13]; POSTEMERGENCE, Rate 10 g/ha) was 5, the “Plant response rating, Cheatgrass” value ([13]; POSTEMERGENCE, Rate 50 g/ha) was 6 and the “Plant response rating, Cheatgrass” value ([13]; PREEMERGENCE, Rate 10 g/ha) was 2. The “Plant response rating, Cheatgrass” value ([13]; PREEMERGENCE, Rate 50 g/ha) was 3, the “Plant response rating, Cocklebur” value ([14]; POSTEMERGENCE, Rate 10 g/ha) was 9 and the “Plant response rating, Cocklebur” value ([14]; POSTEMERGENCE, Rate 50 g/ha) was 10. The “Plant response rating, Cocklebur” value ([14]; PREEMERGENCE, Rate 10 g/ha) was 0, the “Plant response rating, Cocklebur” value ([14]; PREEMERGENCE, Rate 50 g/ha) was 0 and the “Plant response rating, Giant foxtail” value ([15]; 62 g/ha) was 50. For the same compound, the “Plant response rating, Giant foxtail” value ([15]; 250 g/ha) was 50, the “Plant response rating (0 to 100), Giant foxtail” value ([15]; Rate 1 g/ha) was 20 and the “Plant response rating (0 to 100), Giant foxtail” value ([15]; Rate 4 g/ha) was 30. For the same compound, the “Plant response rating (0 to 100), Giant foxtail” value ([15]; Rate 16 g/ha) was 50, the “Plant response rating, Blackgrass” value ([16]; POSTEMERGENCE, Rate 10 g/ha) was 6 and the “Plant response rating, Blackgrass” value ([16]; POSTEMERGENCE, Rate 50 g/ha) was 6. For the same compound, the “Plant response rating, Blackgrass” value ([16]; PREEMERGENCE, Rate 10 g/ha) was 4, the “Plant response rating, Blackgrass” value ([16]; PREEMERGENCE, Rate 50 g/ha) was 6 and the “Plant response rating, Rice” value ([17]; POSTEMERGENCE, Rate 10 g/ha) was 6. For the same compound, the “Plant response rating, Rice” value ([17]; POSTEMERGENCE, Rate 50 g/ha) was 4, the “Plant response rating, Rice” value ([17]; PREEMERGENCE, Rate 50 g/ha) was 2 and the “Plant response rating, Wild buckwheat” value ([18]; POSTEMERGENCE, Rate 10 g/ha) was 10. For the same compound, the “Plant response rating, Wild buckwheat” value ([18]; POSTEMERGENCE, Rate 50 g/ha) was 10 and the “Plant response rating, Wild buckwheat” value ([18]; PREEMERGENCE, Rate 50 g/ha) was 7.
